Measured values reported in ChEMBL document CHEMBL1150158, “Lyngbyastatin 1 and Ibu-epilyngbyastatin 1: synthesis, stereochemistry, and NMR line broadening” (J Nat Prod, 2002).
In brackets after ≈: the same amount, converted by molar mass. Numbered stars: 1 amine (or outer) side, 2 acyl side, 3 side chain; on linkers, the order of the positions; unused ones are H or OH. Square brackets hold non-standard residues; d marks the D form. Peptide text beside a SMILES is read from it. X1 = CC[C@H](C)[C@H](OC(=O)[C@@H](C)[C@@H](CC)N[*:1])C(=O)[*:2]; X3 = C[C@@H](N[*:1])C(=O)C(C)(C)C(=O)[*:2]; X2 = C[C@H](N[*:1])C(=O)C(C)(C)C(=O)[*:2]; NMeY = CN[C@@H](Cc1ccc(O)cc1)C(=O)O; NMeL = CN[C@@H](CC(C)C)C(=O)O; NMeV = CN[C@H](C(=O)O)C(C)C

Assays:
NCI-H460 = experiment: Growth inhibition of human NCI-H460 cells; format: functional
DU-145 = experiment: Growth inhibition of human DU145 cells; format: functional
[1] = Induction of rabbit muscle actin polymerization after 1 hr; parameters: species or system Oryctolagus cuniculus, Muscle tissue

SMILES	GI50 (NCI-H460)	GI50 (DU-145)	EC50 [1]
CC[C@H](C)[C@@H]1OC(=O)[C@@H](C)[C@@H](CC)NC(=O)[C@H](C)NC(=O)C(C)(C)C(=O)[C@@H](C)NC(=O)[C@H](Cc2ccc(OC)cc2)N(C)C(=O)[C@H](C(C)C)N(C)C(=O)CNC(=O)[C@H](CC(C)C)N(C)C(=O)CNC1=O (cyclo(A[X1]G[NMeL]G[NMeV][NMeY](Me)[X3]))	0.031 µg/mL (≈ 0.0315 µM)	0.24 µg/mL (≈ 0.244 µM)	–
CC[C@H](C)[C@@H]1OC(=O)[C@@H](C)[C@@H](CC)NC(=O)[C@H](C)NC(=O)C(C)(C)C(=O)[C@H](C)NC(=O)[C@H](Cc2ccc(OC)cc2)N(C)C(=O)[C@H](C(C)C)N(C)C(=O)CNC(=O)[C@H](CC(C)C)N(C)C(=O)CNC1=O [DOLASTATIN 11] (cyclo(A[X1]G[NMeL]G[NMeV][NMeY](Me)[X2]))	0.0013 µg/mL (≈ 0.00132 µM)	0.22 µg/mL (≈ 0.223 µM)	9.5 µM
